This series is described as follows: Solubility of cyclodextrins in an aqueous gelatin/glycerin solution. It is filed as physicochemical. On the procedure: The solubility of β-, γ and hydroxypropyl-β-(HPβ) cyclodextrin in the solution containing gelatin was verified. This study was conducted by dissolving quantities of 2.5% or of 5% (W/V) of β-, γ or hydroxypropyl-β-(HPβ) cyclodextrin in an aqueous solution containing 36% (W/W) of gelatin and 15% (W/W) of anhydrous glycerin.

Setting [1] is: 5% (W/V) cyclodextrin in aqueous solution containing 36% (W/W) gelatin and 15% (W/W) anhydrous glycerin.

With `OC[C@H]1O[C@@H]2O[C@H]3[C@H](O)[C@@H](O)[C@@H](O[C@H]4[C@H](O)[C@@H](O)[C@@H](O[C@H]5[C@H](O)[C@@H](O)[C@@H](O[C@H]6[C@H](O)[C@@H](O)[C@@H](O[C@H]7[C@H](O)[C@@H](O)[C@@H](O[C@H]8[C@H](O)[C@@H](O)[C@@H](O[C@H]1[C@H](O)[C@H]2O)O[C@@H]8CO)O[C@@H]7CO)O[C@@H]6CO)O[C@@H]5CO)O[C@@H]4CO)O[C@@H]3CO` [β-cyclodextrin], the “solubility in the solution containing gelatin” value (“solubility” below) reads like this: (2.5% (W/V) cyclodextrin in aqueous solution containing 36% (W/W) gelatin and 15% (W/W) anhydrous glycerin) “soluble”; under setting [1], “opalescent mixture”. In the case of `OC[C@H]1O[C@@H]2O[C@H]3[C@H](O)[C@@H](O)[C@@H](O[C@H]4[C@H](O)[C@@H](O)[C@@H](O[C@H]5[C@H](O)[C@@H](O)[C@@H](O[C@H]6[C@H](O)[C@@H](O)[C@@H](O[C@H]7[C@H](O)[C@@H](O)[C@@H](O[C@H]8[C@H](O)[C@@H](O)[C@@H](O[C@H]9[C@H](O)[C@@H](O)[C@@H](O[C@H]1[C@H](O)[C@H]2O)O[C@@H]9CO)O[C@@H]8CO)O[C@@H]7CO)O[C@@H]6CO)O[C@@H]5CO)O[C@@H]4CO)O[C@@H]3CO` [γ-cyclodextrin], under setting [1], the “solubility” value was “soluble”.

In the case of hydroxypropyl-β-cyclodextrin, under setting [1], the “solubility” value is reported as “soluble”.

The values above are taken from patent publication US9168229B2, “Soft gelatin capsules” (ALTERGON S.A., priority 2005, dated 2015).
